Test results reported in paper PMC5218480 (PLoS ONE, 2017).

System: MV-4-11 cells
Experiment: Gene expression microarray analysis (Affymetrix PrimeView) and GSEA
Assay type: cell-based, human
Parameters: RFU PODN (11730768_x_at) / Fold change /veh PODN (11730768_x_at) / RFU LINC00158 (11744669_a_at) / Fold change /veh LINC00158 (11744669_a_at) / RFU DUSP10 (11751237_a_at) / Fold change /veh DUSP10 (11751237_a_at) / RFU ID3 (11757404_x_at) / Fold change /veh ID3 (11757404_x_at) / RFU PLEKHG5 (11737974_s_at) / Fold change /veh PLEKHG5 (11737974_s_at) / RFU LRRC4B (11730491_at) / Fold change /veh LRRC4B (11730491_at) / RFU GIMAP4 (11747438_a_at) / Fold change /veh GIMAP4 (11747438_a_at) / RFU KRT8 (11758183_x_at) / Fold change /veh KRT8 (11758183_x_at) / RFU CNN1 (11734310_a_at) / Fold change /veh CNN1 (11734310_a_at) / RFU VPS37D (11726825_at) / Fold change /veh VPS37D (11726825_at) / RFU C10orf10 (11716522_x_at) / Fold change /veh C10orf10 (11716522_x_at) / RFU KIR2DL2 /// KIR2DL4 /// KIR2DL5A /// KIR2DL5B /// KIR2DS1 /// KIR2DS2 /// KIR2DS3 /// KIR2DS4 /// KIR3DL3 /// KIR3DL3 /// KIR3DS1 (11738374_at) / Fold change /veh KIR2DL2 /// KIR2DL4 /// KIR2DL5A /// KIR2DL5B /// KIR2DS1 /// KIR2DS2 /// KIR2DS3 /// KIR2DS4 /// KIR3DL3 /// KIR3DL3 /// KIR3DS1 (11738374_at) / RFU C1QL1 (11718748_at) / Fold change /veh C1QL1 (11718748_at) / RFU TMPRSS4 (11747572_a_at) / Fold change /veh TMPRSS4 (11747572_a_at) / RFU HAMP (11756126_x_at) / Fold change /veh HAMP (11756126_x_at) / RFU RNFT2 (11725882_a_at) / Fold change /veh RNFT2 (11725882_a_at) / RFU NR4A2 (11747474_a_at) / Fold change /veh NR4A2 (11747474_a_at) / RFU ABCC12 (11746883_a_at) / Fold change /veh ABCC12 (11746883_a_at) / RFU TMEM136 (11760407_x_at) / Fold change /veh TMEM136 (11760407_x_at) / RFU CLDN22 /// WWC2 (11732394_at) / Fold change /veh CLDN22 /// WWC2 (11732394_at) / RFU HLA-DPB1 (11760878_x_at) / Fold change /veh HLA-DPB1 (11760878_x_at) / RFU SPINT1 (11716480_a_at) / Fold change /veh SPINT1 (11716480_a_at) / RFU GAP43 (11754022_s_at) / Fold change /veh GAP43 (11754022_s_at) / RFU A4GNT (11735810_at) / Fold change /veh A4GNT (11735810_at) / RFU PRB3 (11715151_x_at) / Fold change /veh PRB3 (11715151_x_at) / RFU TUBB4B (11761932_at) / Fold change /veh TUBB4B (11761932_at) / RFU CAPN14 (11732068_a_at) / Fold change /veh CAPN14 (11732068_a_at) / RFU TMCC2 (11721928_a_at) / Fold change /veh TMCC2 (11721928_a_at) / RFU IRGQ (11745062_a_at) / Fold change /veh IRGQ (11745062_a_at) / RFU FAM174B (11720279_a_at) / Fold change /veh FAM174B (11720279_a_at) / RFU TMPRSS4 (11748680_a_at) / Fold change /veh TMPRSS4 (11748680_a_at) / RFU FAM212B (11763350_a_at) / Fold change /veh FAM212B (11763350_a_at) / RFU PLEKHG5 (11743358_a_at) / Fold change /veh PLEKHG5 (11743358_a_at) / RFU ZSCAN30 (11745921_a_at) / Fold change /veh ZSCAN30 (11745921_a_at) / RFU CMKLR1 (11741424_a_at) / Fold change /veh CMKLR1 (11741424_a_at) / RFU LOC101060620 /// MAPK8IP1 (11723275_at) / Fold change /veh LOC101060620 /// MAPK8IP1 (11723275_at) / RFU SPTSSB (11747773_x_at) / Fold change /veh SPTSSB (11747773_x_at) / RFU PRSS12 (11739890_at) / Fold change /veh PRSS12 (11739890_at) / RFU BIN1 (11741810_x_at) / Fold change /veh BIN1 (11741810_x_at) / RFU WNT11 (11732464_a_at) / Fold change /veh WNT11 (11732464_a_at) / RFU C10orf10 (11716521_a_at) / Fold change /veh C10orf10 (11716521_a_at) / RFU C5orf56 (11738089_at) / Fold change /veh C5orf56 (11738089_at) / RFU CYB561 (11721691_x_at) / Fold change /veh CYB561 (11721691_x_at) / RFU ANKRD19P (11752326_a_at) / Fold change /veh ANKRD19P (11752326_a_at) / RFU OR2T12 /// OR2T33 /// OR2T8 (11738714_s_at) / Fold change /veh OR2T12 /// OR2T33 /// OR2T8 (11738714_s_at) / RFU VCAN (11748164_a_at) / Fold change /veh VCAN (11748164_a_at) / RFU JSRP1 (11732532_at) / Fold change /veh JSRP1 (11732532_at) / RFU KRTAP10-11 (11738290_x_at) / Fold change /veh KRTAP10-11 (11738290_x_at) / RFU MYO3A (11730013_a_at) / Fold change /veh MYO3A (11730013_a_at) / RFU EBF3 (11725865_a_at) / Fold change /veh EBF3 (11725865_a_at) / RFU CAMK2N1 (11719241_x_at) / Fold change /veh CAMK2N1 (11719241_x_at) / RFU C5orf56 (11738088_a_at) / Fold change /veh C5orf56 (11738088_a_at) / RFU OLFML3 (11715873_a_at) / Fold change /veh OLFML3 (11715873_a_at) / RFU LOC100653217 /// NTM (11731650_a_at) / Fold change /veh LOC100653217 /// NTM (11731650_a_at) / RFU MAPK11 (11762145_a_at) / Fold change /veh MAPK11 (11762145_a_at) / RFU FIZ1 (11724087_x_at) / Fold change /veh FIZ1 (11724087_x_at) / RFU OASL (11726364_x_at) / Fold change /veh OASL (11726364_x_at) / RFU SOX15 (11748057_x_at) / Fold change /veh SOX15 (11748057_x_at) / RFU CD79A (11719716_a_at) / Fold change /veh CD79A (11719716_a_at) / RFU HIST1H1D (11736915_at) / Fold change /veh HIST1H1D (11736915_at) / RFU CASKIN2 (11723855_a_at) / Fold change /veh CASKIN2 (11723855_a_at) / RFU LOC730098 (11760151_x_at) / Fold change /veh LOC730098 (11760151_x_at) / RFU OR4N2 (11742367_at) / Fold change /veh OR4N2 (11742367_at) / RFU PRRT2 (11749266_a_at) / Fold change /veh PRRT2 (11749266_a_at) / RFU SNX32 (11753110_a_at) / Fold change /veh SNX32 (11753110_a_at) / RFU CDHR5 (11726645_a_at) / Fold change /veh CDHR5 (11726645_a_at) / RFU RCAN1 (11760418_a_at) / Fold change /veh RCAN1 (11760418_a_at) / RFU FAM167A (11723789_a_at) / Fold change /veh FAM167A (11723789_a_at) / RFU FAM26E (11764081_at) / Fold change /veh FAM26E (11764081_at) / RFU ISYNA1 (11749810_s_at) / Fold change /veh ISYNA1 (11749810_s_at) / RFU ACY1 (11761880_at) / Fold change /veh ACY1 (11761880_at) / RFU 11764098_at / Fold change /veh 11764098_at / RFU SAMD14 (11745864_x_at) / Fold change /veh SAMD14 (11745864_x_at) / RFU NPB (11741838_a_at) / Fold change /veh NPB (11741838_a_at) / RFU TMPRSS6 (11731388_a_at) / Fold change /veh TMPRSS6 (11731388_a_at) / RFU KRTAP10-2 (11738614_at) / Fold change /veh KRTAP10-2 (11738614_at) / RFU ARHGAP8 /// PRR5-ARHGAP8 (11727945_x_at) / Fold change /veh ARHGAP8 /// PRR5-ARHGAP8 (11727945_x_at) / RFU KRTAP5-7 /// NADSYN1 (11734609_at) / Fold change /veh KRTAP5-7 /// NADSYN1 (11734609_at) / RFU RASL12 (11751679_a_at) / Fold change /veh RASL12 (11751679_a_at) / RFU CDKN2B (11736163_a_at) / Fold change /veh CDKN2B (11736163_a_at) / RFU PRF1 (11729649_at) / Fold change /veh PRF1 (11729649_at) / RFU, ZNF638 /// ZNF638-IT1 / Fold change vs veh, ZNF638 /// ZNF638-IT1 / RFU, PANK3 / Fold change vs veh, PANK3 / RFU, SH3YL1 / Fold change vs veh, SH3YL1 / RFU, ZEB2 / Fold change vs veh, ZEB2 / RFU, NRIP1 / Fold change vs veh, NRIP1 / RFU, PTTG1IP / Fold change vs veh, PTTG1IP / RFU, CAPN2 / Fold change vs veh, CAPN2 / RFU, MED14 / Fold change vs veh, MED14 / RFU, SNORA58 / Fold change vs veh, SNORA58 / RFU, C1orf63 / Fold change vs veh, C1orf63 / RFU, LRRFIP1 / Fold change vs veh, LRRFIP1 / RFU, NDUFAF7 / Fold change vs veh, NDUFAF7 / RFU, SLC12A2 / Fold change vs veh, SLC12A2 / RFU, IBTK / Fold change vs veh, IBTK / RFU, ESF1 / Fold change vs veh, ESF1 / Fold change vs veh, TMEM50B / RFU, TAOK1 / Fold change vs veh, TAOK1 / RFU, ACBD3 / Fold change vs veh, ACBD3 / RFU, TMA16 / Fold change vs veh, TMA16 / RFU, RWDD3 / Fold change vs veh, RWDD3 / RFU, BCAT1 / Fold change vs veh, BCAT1 / RFU, EDEM3 / Fold change vs veh, EDEM3 / RFU, TMEM33 / Fold change vs veh, TMEM33 / RFU, WDR75 / Fold change vs veh, WDR75 / RFU, AHCTF1 / Fold change vs veh, AHCTF1 / RFU, TFRC / Fold change vs veh, TFRC / RFU, ZDHHC17 / Fold change vs veh, ZDHHC17 / RFU, NOM1 / Fold change vs veh, NOM1 / RFU, ARL8B / Fold change vs veh, ARL8B / RFU, ZBTB11 / Fold change vs veh, ZBTB11 / RFU, TAMM41 / Fold change vs veh, TAMM41 / RFU, KIAA1704 /// LOC100996395 / Fold change vs veh, KIAA1704 /// LOC100996395 / RFU, ING1 / Fold change vs veh, ING1 / RFU, TRMT61B / Fold change vs veh, TRMT61B / RFU, FUBP3 / Fold change vs veh, FUBP3 / RFU, TP53 / Fold change vs veh, TP53 / RFU, TNKS2 / Fold change vs veh, TNKS2 / RFU, ZFP14 / Fold change vs veh, ZFP14 / RFU, ACTR2 / Fold change vs veh, ACTR2 / RFU, PPP3R1 / Fold change vs veh, PPP3R1 / RFU, PIK3R1 / Fold change vs veh, PIK3R1 / RFU, HNRNPA1 / Fold change vs veh, HNRNPA1 / RFU, RNF170 / Fold change vs veh, RNF170 / RFU, ZNF28 / Fold change vs veh, ZNF28 / RFU, RNGTT / Fold change vs veh, RNGTT / RFU, OGT / Fold change vs veh, OGT / RFU, BRD1 / Fold change vs veh, BRD1 / RFU, MARS / Fold change vs veh, MARS / RFU, ZNF655 / Fold change vs veh, ZNF655 / RFU, FAHD1 / Fold change vs veh, FAHD1 / RFU, BDP1 / Fold change vs veh, BDP1 / RFU, LRRCC1 / Fold change vs veh, LRRCC1 / RFU, ARID1A / Fold change vs veh, ARID1A / RFU, ZNF146 / Fold change vs veh, ZNF146 / RFU, ZNF330 / Fold change vs veh, ZNF330 / RFU, GPN3 / Fold change vs veh, GPN3 / RFU, C9orf123 / Fold change vs veh, C9orf123 / RFU, N4BP2L2 / Fold change vs veh, N4BP2L2 / RFU, ARFIP1 / Fold change vs veh, ARFIP1 / RFU, FAM179B / Fold change vs veh, FAM179B / RFU, BCL10 / Fold change vs veh, BCL10 / RFU, UHRF1BP1L / Fold change vs veh, UHRF1BP1L / RFU, BET1 / Fold change vs veh, BET1 / RFU, CNOT2 / Fold change vs veh, CNOT2 / RFU, ZNF268 / Fold change vs veh, ZNF268 / Fold change vs veh, ZNF507 / RFU, DGCR2 / Fold change vs veh, DGCR2 / RFU, WDSUB1 / Fold change vs veh, WDSUB1 / Fold change vs veh, HSP90B1 /// MIR3652 / RFU, ADSS / Fold change vs veh, ADSS / RFU, GK / Fold change vs veh, GK / RFU, ZNF148 / Fold change vs veh, ZNF148 / RFU, TAF9 / Fold change vs veh, TAF9 / RFU, SLC1A5 / Fold change vs veh, SLC1A5 / RFU, SLMO2 / Fold change vs veh, SLMO2 / RFU, ABCC4 / Fold change vs veh, ABCC4 / RFU, LOC101060439 /// RAP1B / Fold change vs veh, LOC101060439 /// RAP1B / RFU, RFX7 / Fold change vs veh, RFX7 / RFU, GTPBP10 / Fold change vs veh, GTPBP10 / RFU, CNEP1R1 / Fold change vs veh, CNEP1R1 / RFU, BIVM-ERCC5 /// ERCC5 / Fold change vs veh, BIVM-ERCC5 /// ERCC5 / RFU, ILF3 / Fold change vs veh, ILF3 / RFU 11762660_at / Fold change /veh 11762660_at / RFU VCAN (11757783_s_at) / Fold change /veh VCAN (11757783_s_at) / RFU DDX43 (11728927_at) / Fold change /veh DDX43 (11728927_at) / RFU KRT8 (11758188_x_at) / Fold change /veh KRT8 (11758188_x_at) / RFU NKD1 (11759106_at) / Fold change /veh NKD1 (11759106_at) / RFU SRD5A1 (11742802_a_at) / Fold change /veh SRD5A1 (11742802_a_at) / RFU TPSAB1 /// TPSB2 (11721975_s_at) / Fold change /veh TPSAB1 /// TPSB2 (11721975_s_at) / RFU GSTM3 (11746129_a_at) / Fold change /veh GSTM3 (11746129_a_at) / RFU IL23R (11737362_x_at) / Fold change /veh IL23R (11737362_x_at) / RFU TMEM51 (11727254_a_at) / Fold change /veh TMEM51 (11727254_a_at) / RFU PIWIL2 (11732686_x_at) / Fold change /veh PIWIL2 (11732686_x_at) / RFU ORM1 (11744905_x_at) / Fold change /veh ORM1 (11744905_x_at) / RFU CCDC152 (11743942_at) / Fold change /veh CCDC152 (11743942_at) / RFU ECM1 (11717891_a_at) / Fold change /veh ECM1 (11717891_a_at) / RFU IL23R (11748794_a_at) / Fold change /veh IL23R (11748794_a_at) / RFU TNFAIP8L3 (11732012_x_at) / Fold change /veh TNFAIP8L3 (11732012_x_at) / RFU MBOAT4 (11741988_at) / Fold change /veh MBOAT4 (11741988_at) / RFU 11764193_at / Fold change /veh 11764193_at / RFU TMEM53 (11763286_at) / Fold change /veh TMEM53 (11763286_at) / RFU MAGEB2 (11727129_at) / Fold change /veh MAGEB2 (11727129_at) / RFU TMEM200A (11744735_a_at) / Fold change /veh TMEM200A (11744735_a_at) / RFU CCDC152 (11751479_a_at) / Fold change /veh CCDC152 (11751479_a_at) / RFU FAM211A (11726209_a_at) / Fold change /veh FAM211A (11726209_a_at) / RFU RGS16 (11746705_a_at) / Fold change /veh RGS16 (11746705_a_at) / RFU VCAN (11755009_s_at) / Fold change /veh VCAN (11755009_s_at) / RFU RHOB (11743442_s_at) / Fold change /veh RHOB (11743442_s_at) / RFU RGS16 (11720943_a_at) / Fold change /veh RGS16 (11720943_a_at) / RFU RGS16 (11720944_at) / Fold change /veh RGS16 (11720944_at) / RFU, VPS4B / Fold change vs veh, VPS4B / RFU, CREB1 / Fold change vs veh, CREB1 / RFU, DNAJC13 / Fold change vs veh, DNAJC13 / RFU, GNAQ / Fold change vs veh, GNAQ / RFU, CDK5R1 / Fold change vs veh, CDK5R1 / RFU, ZRANB3 / Fold change vs veh, ZRANB3 / RFU, CUL4A / Fold change vs veh, CUL4A / RFU, CCNY / Fold change vs veh, CCNY / RFU, UFL1 / Fold change vs veh, UFL1 / RFU, COG3 / Fold change vs veh, COG3 / RFU, DIAPH2 / Fold change vs veh, DIAPH2 / RFU, SKA2 / Fold change vs veh, SKA2 / RFU, AFF3 / Fold change vs veh, AFF3 / RFU, LMF1 / Fold change vs veh, LMF1 / RFU, IPO11 / Fold change vs veh, IPO11 / RFU, DFFB / Fold change vs veh, DFFB / RFU, FOXP1 / Fold change vs veh, FOXP1 / RFU, CARD8 / Fold change vs veh, CARD8 / RFU, STRN3 / Fold change vs veh, STRN3 / RFU, ADK / Fold change vs veh, ADK / RFU, RASSF2 / Fold change vs veh, RASSF2 / RFU, WIPF1 / Fold change vs veh, WIPF1 / RFU, LARP1B / Fold change vs veh, LARP1B / RFU, RASA1 / Fold change vs veh, RASA1 / RFU, RB1 / Fold change vs veh, RB1 / RFU, PPFIA1 / Fold change vs veh, PPFIA1 / RFU, MAT2A / Fold change vs veh, MAT2A / RFU, CCT5 / Fold change vs veh, CCT5 / RFU, WDR92 / Fold change vs veh, WDR92 / RFU, CUX1 / Fold change vs veh, CUX1 / RFU, TTC7A / Fold change vs veh, TTC7A / RFU, TMEM135 / Fold change vs veh, TMEM135 / RFU, DEPTOR / Fold change vs veh, DEPTOR / RFU, CPM / Fold change vs veh, CPM / RFU, DNAJB6 / Fold change vs veh, DNAJB6 / RFU, CACNA2D3 / Fold change vs veh, CACNA2D3 / RFU, DTX4 / Fold change vs veh, DTX4 / RFU, TFCP2 / Fold change vs veh, TFCP2 / RFU, GMCL1 /// GMCL1P1 / Fold change vs veh, GMCL1 /// GMCL1P1 / RFU, AEBP2 / Fold change vs veh, AEBP2 / RFU, SNHG1 /// SNORD22 /// SNORD25 /// SNORD26 /// SNORD27 /// SNORD28 /// SNORD29 /// SNORD31 / Fold change vs veh, SNHG1 /// SNORD22 /// SNORD25 /// SNORD26 /// SNORD27 /// SNORD28 /// SNORD29 /// SNORD31 / Fold change (Aza/veh), C12orf56 (ProbeSet 11735607_a_at) / Fold change (ACY-1035/veh), C12orf56 (ProbeSet 11735607_a_at) / Fold change (Aza/veh), FGFR1OP (ProbeSet 11751329_s_at) / Fold change (ACY-1035/veh), FGFR1OP (ProbeSet 11751329_s_at) / Fold change (Aza/veh), VPS36 (ProbeSet 11739960_a_at) / Fold change (ACY-1035/veh), VPS36 (ProbeSet 11739960_a_at) / RFU SYPL1 (11715823_x_at) / Fold change /veh SYPL1 (11715823_x_at) / RFU IGFBP7 (11715501_s_at) / Fold change /veh IGFBP7 (11715501_s_at) / RFU REEP3 (11722064_at) / Fold change /veh REEP3 (11722064_at) / RFU IGLL1 (11728026_x_at) / Fold change /veh IGLL1 (11728026_x_at): dose or concentration left out as unconfirmed
Settings: MV-4-11 cells, 48 hours

In the case of Nc1ncn([C@@H]2O[C@H](CO)[C@@H](O)[C@H]2O)c(=O)n1 [azacitidine], the “RFU C10orf10 (11716521_a_at)” value is reported as 42.51 RFU.
